# Data: patent publication US20090263852A1, “NONAPOPTOTIC FORMS OF CELL DEATH AND METHODS OF MODULATION” (priority 2000, published 2009)
# Starred links: 1 amine or outer side, 2 acyl side, 3 side chain; linkers in the order of their positions; H or OH if unused. Positions of bridges follow the written chain, without caps; N, C: chain ends. Non-standard residues stand in square brackets, D forms with d. Residues, ends and D or L forms follow the SMILES beside them. Chains are numbered I, II in the order given. Actinocin(9to1) = Cc1c2oc3c(C)ccc(C(=O)[*:1])c3nc-2c(C(=O)[*:2])c(N)c1=O; NMeV = CN[C@H](C(=O)O)C(C)C; Sar = CNCC(=O)O
# Key:
# [1] = system: IGFIR-IC transfected 293T cells; assay: IGFIR-IC-induced cell death (paraptosis) in transfected 293T cells, trypan blue exclusion; format: cell-based; design: inhibition of IGFIR-IC-induced cell death: dose or concentration left out as unconfirmed; settings: for IGFIR-induced cell death following drug treatment: drug added 8.5 hrs after transfection, removed after 12 hrs, floating dead cells counted 24 hrs later with trypan blue
# Method: Transient transfections used Lipofect-Amine (GIBCO, BRL, Rockville, Md.) according to the manufacturer's instructions. Briefly, 1×10^6 293T cells were seeded in 6 cm dishes, and transfected the next day using a ratio of DNA:Lipofect-Amine of 1 μg:5 μl.
# (§1) Following expression of the IGIFR-IC constructs, the cell cultures were assayed for cell death. Cell death was assessed by trypan blue exclusion. Floating cells were collected at the indicated times after transfection, by centrifugation for 10 minutes at 1500 rpm. The cell pellet was subsequently resuspended in 50 μl of PBS, to which 50 μl of trypan blue was added. Dead cells were counted by 4 independent hemocytometer counts.
# Briefly, caspase inhibitor BAF was added to pIGFIR-IC transfected 293T cells at a concentration of […]. In addition, 293T cells were cotransfected with […] of pIGFIR-IC and […] of either pcDNA3 or pxiap or pBcl-xL. […] BAF and zVAD.fmk were obtained from Enzyme System Products (Livermore, Calif.).
# To assess IGFIR-induced cell death following treatment with Actinomycin D and cycloheximide, both drugs were obtained form Sigma and added to IGFIR-IC transfected 293T cells. Briefly, 293T cells were transfected as described above and 8.5 hours after the beginning of transfection the drugs were added at the indicated concentrations. The drugs were subsequently removed after 12 hours and the cells were fed with fresh medium. Floating cells were collected 24 hrs after the removal of the drugs and dead cells were counted in the presence of trypan blue.
# To assess whether caspase-9 has a functional role in IGFIR-induced cell death 293T cells were transfected with 2 μg of DNA consisting of either pcDNA3, 0.5 μg pIGFIR-IC+1.5 μg pcDNA3 (Invitrogen, Carlsbad, Calif.), or 0.5 μg pIGFIR-IC+1.5 μg dominant negative caspase-9 (pC9DN) or dominant negative caspase-7 (pC7DN) expression constructs. 48 hours after transfection, dead cells were counted.
# Apoptosis = settings: Table 1, Comparison of Apoptosis, Necrosis and Paraptosis; cited from earlier work
# [2] = system: 293T cells transfected with pro-caspase-9 (pC9); assay: caspase-9 induced cell death in transfected 293T cells; format: cell-based
# Method: (§2) In panel (A) 293T cells were transfected with the indicated pcDNA3-based caspase zymogen expression constructs. The general caspase inhibitor BAF was added at 50 μM final concentration. Cell death was assayed 48 hours after transfection. […] Asterisks indicate a highly significant difference from the control as determined by one-way ANOVA analysis (F=34.624, P<0.0001), P<0.0001 for pC9, P=0.0002 for pC7, and P=0.0001 for pC9+BAF (Bonferroni/Dunn post-hoc test). Error bars represent the SEM from three independent experiments. […] Cells were photographed 24 hours after transfection. […] BAF. […] Cells were stained as described in FIG. 2C. Panel (E) Electron micrograph of 293T cells transfected with an expression construct for pro-caspase-9 in the presence of. zVAD.fmk (40 μM). Morphology similar to IGFIR-IC-induced cell death was observed, including cytoplasmic vacuolation and the absence of chromatin condensation, nuclear fragmentation, and apoptotic body formation. Original magnification: 6000×.
# as §1, with “The cell pellet was subsequently resuspended in 50 μl of PBS, to which 50 μl of trypan blue was added.” left out, “counts. […]” for “counts.”
# [3] = system: 293T cells transfected with pro-caspase expression constructs; assay: Internucleosomal DNA fragmentation of 293T cells transfected with pro-caspase expression constructs; format: cell-based; settings: 50 μM BAF
# Method: as §2
# Since one of the defining features of apoptotic cell death is the fragmentation of chromatin, genome integrity was assayed by agarose gel electrophoresis. Oligonucleosomal DNA fragmentation was assessed by extraction of soluble DNA from 3×10^6 transfected cells as by Frisch and Francis, Journal of Cell Biology 124:619-626 (1994), which is incorporated herein by reference.
# [4] = system: 293T cells transfected with caspase-7 zymogen expression construct; assay: caspase-7 induced cell death in transfected 293T cells; format: cell-based; settings: 50 μM final concentration, 48 hours after transfection
# Method: as §2
# as §1, with “The cell pellet was subsequently resuspended in 50 μl of PBS, to which 50 μl of trypan blue was added.” left out, “counts. […]” for “counts.”
smiles,measurement,setting,value
"Cc1c2oc3c(C)ccc(C(=O)N[C@@H]4C(=O)N[C@H](C(C)C)C(=O)N5CCC[C@H]5C(=O)N(C)CC(=O)N(C)[C@@H](C(C)C)C(=O)O[C@@H]4C)c3nc-2c(C(=O)N[C@@H]2C(=O)N[C@H](C(C)C)C(=O)N3CCC[C@H]3C(=O)N(C)CC(=O)N(C)[C@@H](C(C)C)C(=O)O[C@@H]2C)c(N)c1=O [Actinomycin D] (I: T[dV]P[Sar][NMeV] / II: T[dV]P[Sar][NMeV]; ester I:1-I:C, II:1-II:C; linker I:N-II:N via Actinocin(9to1))",IGFIR-induced cell death following drug treatment,[1],restored cell viability to control levels
same,Inhibition by: Apoptosis,Apoptosis,Sometimes
"COC(=O)C[C@H](NC(=O)OC(C)(C)C)C(=O)CF [BAF, t-butyloxycarbonyl-Asp (O-methyl)-fluoromethyl ketone]",inhibition of IGFIR-IC-induced cell death,[1]; 293T cells,Neither the administration of the caspase inhibitor BAF at 50 mM (A) nor the cotransfection of xiap (B) or Bcl-xL (C) were effective
same,"morphology of pro-caspase-9 transfected cells, light microscopy","[2]; 50 μM BAF, 24 hours after transfection",suppressed the apoptotic phenotype
same,inhibition of caspase-9 induced cell death,"[2]; 50 μM final concentration, 48 hours after transfection",30%
same,Internucleosomal DNA fragmentation,[3],completely inhibited
same,inhibition of caspase-7 induced cell death,[4],completely
"C[C@@H]1C[C@@H]([C@H](O)CC2CC(=O)NC(=O)C2)C(=O)[C@@H](C)C1 [Cycloheximide, cycloheximide]",Inhibition by: Paraptosis,"[1]; Table 1, 293T cell death induced by IGFIR-IC",0
same,IGFIR-induced cell death following drug treatment,[1],dose-dependent block
same,Inhibition by: Apoptosis,Apoptosis,Sometimes
CC[C@H]1/C=C/C=C/C[C@@H](C)[C@H](O)[C@@](C)(O)C(=O)[C@@H](C)[C@H](O)[C@@H](C)C(=O)[C@@H](C)[C@H](O)[C@@H](C)/C=C/C(=O)O[C@@H]2[C@H](C)[C@H](CC1)O[C@]1(CC[C@H](C)[C@H](C[C@@H](C)O)O1)[C@H]2C [oligomycin],block of IGFIR-induced cell death phenotype,[1]; 100 ng/ml,blocked the phenotype
